Data from patent US20120094964A1, “SULFAMOYL BENZOIC ACID DERIVATIVES AS TRPM8 ANTAGONISTS” (priority 2009, published 2012).

target: T1, human TRPM8 (Homo sapiens, UniProt Q7Z2W7); test: In Vitro human TRPM8 Functional Assay (intracellular Ca2+, Fluo4, FDSS, menthol activation); type: cell-based; details: HEK293 cells stably expressing human TRPM8; activation with L-(-)-Menthol; 11-point dose-response
T1 construct: expressed in transfected cells
Summary of the method: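 Fluo4-loaded HEK293 cells stably expressing TRPM8 were preincubated with compound for 5 min at room temperature, then stimulated with L-menthol (20 μl of 90 μM stock) while fluorescence was read. IC50 values come from 11-point curves fitted to the mean of duplicate wells.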

T1 sequence (Q7Z2W7 whole entry): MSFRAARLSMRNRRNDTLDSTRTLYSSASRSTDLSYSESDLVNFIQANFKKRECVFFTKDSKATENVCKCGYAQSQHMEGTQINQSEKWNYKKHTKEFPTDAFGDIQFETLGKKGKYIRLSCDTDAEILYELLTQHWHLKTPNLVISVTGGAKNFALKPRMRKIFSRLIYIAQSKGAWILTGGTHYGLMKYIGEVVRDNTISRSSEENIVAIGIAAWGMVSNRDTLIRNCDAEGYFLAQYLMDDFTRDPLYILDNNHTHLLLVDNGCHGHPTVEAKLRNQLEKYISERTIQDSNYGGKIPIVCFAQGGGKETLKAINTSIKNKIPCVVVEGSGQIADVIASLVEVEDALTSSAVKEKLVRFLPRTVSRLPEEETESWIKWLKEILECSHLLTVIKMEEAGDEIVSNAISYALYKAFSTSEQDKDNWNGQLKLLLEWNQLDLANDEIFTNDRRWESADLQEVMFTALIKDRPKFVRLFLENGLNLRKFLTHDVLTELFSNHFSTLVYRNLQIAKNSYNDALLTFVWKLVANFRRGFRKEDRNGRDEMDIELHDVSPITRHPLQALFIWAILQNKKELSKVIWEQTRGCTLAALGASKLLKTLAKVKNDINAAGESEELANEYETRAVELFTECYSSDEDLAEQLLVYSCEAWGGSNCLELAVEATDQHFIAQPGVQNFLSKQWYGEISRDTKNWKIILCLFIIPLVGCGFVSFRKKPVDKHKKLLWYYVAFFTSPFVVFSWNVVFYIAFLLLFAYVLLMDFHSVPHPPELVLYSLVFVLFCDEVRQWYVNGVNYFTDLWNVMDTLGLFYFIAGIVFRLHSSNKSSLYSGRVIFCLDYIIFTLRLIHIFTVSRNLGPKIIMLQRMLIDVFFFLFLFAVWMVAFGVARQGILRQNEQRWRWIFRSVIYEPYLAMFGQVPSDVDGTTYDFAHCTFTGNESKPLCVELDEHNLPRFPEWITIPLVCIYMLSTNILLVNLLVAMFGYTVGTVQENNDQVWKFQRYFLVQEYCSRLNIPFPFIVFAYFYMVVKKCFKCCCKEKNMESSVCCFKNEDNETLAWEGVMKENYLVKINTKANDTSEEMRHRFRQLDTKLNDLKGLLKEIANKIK

Compound	IC50 [nM]
O=C(O)c1ccc(S(=O)(=O)N(Cc2ccccc2F)c2ncc(C(F)(F)F)cc2Cl)cc1 [Example 20, 4-(N-(3-Chloro-5-(trifluoromethyl)pyridin-2-yl)-N-(2-fluorobenzyl)sulfamoyl)benzoic acid]	< 1000
Cc1cc(Cl)cnc1N(Cc1ccc(F)c(Cl)c1)S(=O)(=O)c1ccc(C(=O)O)cc1 [Example 77, 4-(N-(5-Chloro-3-methylpyridin-2-yl)-N-(3-chloro-4-fluorobenzyl)sulfamoyl)benzoic acid]	< 1000
O=C(O)c1ccc(Cl)c(S(=O)(=O)N(Cc2ccccc2)c2ccccc2Cl)c1 [Example 120, 3-(N-Benzyl-N-(2-chlorophenyl)sulfamoyl)-4-chlorobenzoic acid]	1000 to 10000
O=C(O)c1ccc(S(=O)(=O)N(Cc2ccsc2)c2ncc(C(F)(F)F)cc2Cl)cc1 [Example 172, 4-(N-(3-Chloro-5-(trifluoromethyl)pyridin-2-yl)-N-(thiophen-3-ylmethyl)sulfamoyl)benzoic acid]	< 1000
COc1ccc(-c2ccc(CN(c3ncc(C(F)(F)F)cc3Cl)S(=O)(=O)c3ccc(C(=O)O)cc3)cc2)cn1 [Example 162, 4-(N-(3-chloro-5-(trifluoromethyl)pyridin-2-yl)-N-(4-(6-methoxypyridin-3-yl)-benzyl)sulfamoyl)benzoic acid]	< 1000
O=C(O)c1ccc(S(=O)(=O)N(Cc2ccc(F)cc2Cl)c2ncc(C(F)(F)F)cc2Cl)cc1 [Example 40, 4-(N-(2-Chloro-4-fluorobenzyl)-N-(3-chloro-5-(trifluoromethyl)pyridin-2-yl)sulfamoyl)benzoic acid]	< 1000
O=C(O)c1ccc(Cl)c(S(=O)(=O)N(Cc2ccccc2)c2ccc(F)cc2)c1 [Example 123, 3-(N-Benzyl-N-(4-fluorophenyl)sulfamoyl)-4-chlorobenzoic acid]	10000 to 30000
Cc1cc(Cl)cnc1N(Cc1ccc(Cl)cc1C(F)(F)F)S(=O)(=O)c1ccc(C(=O)O)cc1 [Example 75, 4-(N-(4-Chloro-2-(trifluoromethyl)benzyl)-N-(5-chloro-3-methylpyridin-2-yl)sulfamoyl)benzoic acid]	< 1000
COc1ccc(OC)c(C(C)N(c2ccc(C)cc2)S(=O)(=O)c2ccc(F)cc2C)c1 (centres unmarked) [Example 96, N-(1-(2,5-Dimethoxyphenyl)ethyl)-4-fluoro-2-methyl-N-p-tolylbenzenesulfonamide]	1000 to 10000
O=C(O)c1ccc(S(=O)(=O)N(CC2CCN(c3ccccn3)CC2)c2ncc(C(F)(F)F)cc2Cl)cc1 [Example 142, 4-(N-(3-Chloro-5-(trifluoromethyl)pyridin-2-yl)-N-((1-(pyridin-2-yl)piperidin-4-yl)methyl)sulfamoyl)benzoic acid]	< 1000
O=C(O)c1ccc(S(=O)(=O)N(Cc2ccc(-c3cccnc3)cc2)c2ncc(C(F)(F)F)cc2Cl)cc1 [Example 154, 4-(N-(3-Chloro-5-(trifluoromethyl)pyridin-2-yl)-N-(4-(pyridin-3-yl)benzyl)sulfamoyl)benzoic acid]	< 1000
O=C(O)c1ccc(S(=O)(=O)N(Cc2cccc(-c3ccccc3)c2)c2ncc(C(F)(F)F)cc2Cl)cc1 [Example 164, 4-(N-[(1,1′-Biphenyl]-3-ylmethyl)-N-(3-chloro-5-(trifluoromethyl)pyridin-2-yl)sulfamoyl)benzoic acid]	< 1000
CC(=O)Nc1ccc(S(=O)(=O)N(Cc2ccccc2)c2ccccn2)cc1 [Example 107, N-(4-(N-Benzyl-N-(pyridin-2-yl)sulfamoyl)phenyl)acetamide]	1000 to 10000
O=C(O)c1ccc(S(=O)(=O)N(Cc2ccc(C(F)(F)F)cc2)c2ncc(Cl)cc2Cl)cc1 [Example 54, 4-(N-(3,5-Dichloropyridin-2-yl)-N-(4-(trifluoromethyl)benzyl)sulfamoyl)benzoic acid]	< 1000
O=S(=O)(c1ccc(O)nc1)N(Cc1ccccc1)c1ncc(C(F)(F)F)cc1Cl [Example 144, N-Benzyl-N-(3-chloro-5-(trifluoromethyl)pyridin-2-yl)-6-hydroxypyridine-3-sulfonamide]	< 1000
O=C(O)c1ccc(S(=O)(=O)N(Cc2ccccc2)c2cc(C(F)(F)F)ccn2)cc1 [Example 21, 4-(N-Benzyl-N-(4-(trifluoromethyl)pyridin-2-yl)sulfamoyl)benzoic acid]	1000 to 10000
O=S(=O)(c1ccc(CO)cc1)N(Cc1ccccc1)c1ncc(C(F)(F)F)cc1Cl [Example 9, N-Benzyl-N-(3-chloro-5-(trifluoromethyl)pyridin-2-yl)-4-(hydroxymethyl)benzene-1-sulfonamide]	< 1000
COc1cc(C(=O)O)ccc1S(=O)(=O)N(Cc1ccccc1)c1ncc(C(F)(F)F)cc1Cl [Example 146, 4-(N-Benzyl-N-(3-chloro-5-(trifluoromethyl)pyridin-2-yl)sulfamoyl)-3-methoxybenzoic acid]	< 1000
COc1ccc(N(C(C)c2ccc(Cl)cc2)S(=O)(=O)c2ccccc2)cc1 (centres unmarked) [Example 87, N-(1-(4-Chlorophenyl)ethyl)-N-(4-methoxyphenyl) benzenesulfonamide]	1000 to 10000
COc1ccc(N(C(C)c2ccccc2OC)S(=O)(=O)c2ccc(C)cc2)cc1 (centres unmarked) [Example 89, N-(4-Methoxyphenyl)-N-(1-(2-methoxyphenyl)ethyl)-4-methylbenzene-sulfonamide]	1000 to 10000
O=C(O)c1ccc(S(=O)(=O)N(Cc2ccc(Cl)cc2C(F)(F)F)c2ncc(Cl)cc2Cl)cc1 [Example 72, 4-(N-(4-Chloro-2-(trifluoromethyl)benzyl)-N-(3,5-dichloropyridin-2-yl)sulfamoyl)benzoic acid]	< 1000
O=C(O)c1ccc(S(=O)(=O)N(Cc2ccc(Cl)cc2)c2ncc(C(F)(F)F)cc2Cl)cc1 [Example 32, 4-(N-(3-Chloro-5-(trifluoromethyl)pyridin-2-yl)-N-(4-chlorobenzyl)sulfamoyl)benzoic acid]	< 1000

Results, then the compound that gave them:

IC50 [nM]	Compound
< 1000	O=C(O)c1ccc(S(=O)(=O)N(Cc2ccccc2)c2ccc(C(F)(F)F)cc2Cl)cc1 [Example 56, 4-(N-Benzyl-N-(2-chloro-4-(trifluoromethyl)phenyl)sulfamoyl)benzoic acid]
1000 to 10000	COc1ccc(N(Cc2ccccc2)S(=O)(=O)c2cc(C(=O)O)ccc2Cl)cc1 [Example 124, 3-(N-Benzyl-N-(4-methoxyphenyl)sulfamoyl)-4-chlorobenzoic acid]
1000 to 10000	O=C(O)c1ccc(S(=O)(=O)N(Cc2ccccc2)c2cccc(C(F)(F)F)n2)cc1 [Example 22, 4-(N-Benzyl-N-(6-(trifluoromethyl)pyridin-2-yl)sulfamoyl)benzoic acid]
< 1000	O=C(O)c1ccc(S(=O)(=O)N(Cc2ccc(Cl)c(F)c2)c2ncc(C(F)(F)F)cc2Cl)cc1 [Example 65, 4-(N-(4-Chloro-3-fluorobenzyl)-N-(3-chloro-5-(trifluoromethyl)pyridin-2-yl)sulfamoyl)benzoic acid]
10000 to 30000	O=S(=O)(Nc1cccc(C(F)(F)F)c1)c1ccccc1 [Example 4, N-(3-(Trifluoromethyl)phenyl)benzenesulfonamide]
< 1000	O=C(O)c1ccc(S(=O)(=O)N(Cc2cccs2)c2ncc(C(F)(F)F)cc2Cl)cc1 [Example 167, 4-(N-(3-Chloro-5-(trifluoromethyl)pyridin-2-yl)-N-(thiophen-2-ylmethyl)sulfamoyl)benzoic acid]
1000 to 10000	O=C(O)c1cc(S(=O)(=O)N(Cc2ccccc2)c2ccc(Cl)cc2)ccc1Cl [Example 122, 5-(N-Benzyl-N-(4-chlorophenyl)sulfamoyl)-2-chlorobenzoic acid]
< 1000	CN(C)C(=O)NCc1ccc(S(=O)(=O)N(Cc2ccccc2)c2ncc(C(F)(F)F)cc2Cl)cc1 [Example 179, N-Benzyl-N-(3-chloro-5-(trifluoromethyl)pyridin-2-yl)-4-((3,3-dimethylureido)methyl)benzene sulfonamide]
10000 to 30000	O=C(CN(c1cccc(C(F)(F)F)c1)S(=O)(=O)c1ccccc1)N1CCCCC1 [Example 6, N-(2-oxo-2-(piperidin-1-yl)ethyl)-N-(3-(trifluoromethyl)phenyl)benzenesulfonamide]
1000 to 10000	O=C(O)c1ccc(S(=O)(=O)N(CCN2CCOCC2)c2ncc(C(F)(F)F)cc2Cl)cc1 [Example 57, 4-(N-(3-Chloro-5-(trifluoromethyl)pyridin-2-yl)-N-(2-morpholinoethyl)sulfamoyl)benzoic acid]
1000 to 10000	Cc1cc(Cl)cnc1N(Cc1ccc(N2CCCC2=O)cc1)S(=O)(=O)c1ccc(C(=O)O)cc1 [Example 80, 4-(N-(5-Chloro-3-methylpyridin-2-yl)-N-(4-(2-oxopyrrolidin-1-yl)benzyl)sulfamoyl)benzoic acid]
< 1000	O=C(O)c1ccc(S(=O)(=O)N(Cc2noc(-c3ccccc3)n2)c2ncc(C(F)(F)F)cc2Cl)cc1 [Example 199, 4-(N-(3-Chloro-5-(trifluoromethyl)pyridin-2-yl)-N-((5-phenyl-1,2,4-oxadiazol-3-yl)methyl)sulfamoyl)benzoic acid]
< 1000	CN(C)S(=O)(=O)NCc1ccc(S(=O)(=O)N(Cc2ccccc2)c2ncc(C(F)(F)F)cc2Cl)cc1 [Example 178, N-Benzyl-N-(3-chloro-5-(trifluoromethyl)pyridin-2-yl)-4-(((N,N-dimethylsulfamoyl)amino)methyl)benzenesulfonamide]
1000 to 10000	COc1cccc(N(C(C)c2cc(OC)ccc2OC)S(=O)(=O)c2ccccc2F)c1 (centres unmarked) [Example 90, N-(1-(2,5-Dimethoxyphenyl)ethyl)-2-fluoro-N-(3-methoxyphenyl)benzene-sulfonamide]
< 1000	O=C(O)c1ccc(S(=O)(=O)N(Cc2ccc(Cl)c(F)c2)c2ncc(Cl)cc2Cl)cc1 [Example 62, 4-(N-(4-Chloro-3-fluorobenzyl)-N-(3,5-dichloropyridin-2-yl)sulfamoyl)benzoic acid]
< 1000	O=C(O)c1ccc(S(=O)(=O)N(CC2CCC2)c2ncc(C(F)(F)F)cc2Cl)cc1 [Example 171, 4-(N-(3-Chloro-5-(trifluoromethyl)pyridin-2-yl)-N-(cyclobutylmethyl)sulfamoyl)benzoic acid]
